Laboratory results: US20250002450A1, “CATIONIC STEROID COMPOUNDS, METHOD OF OBTAINING THEREOF, FORMULATIONS COMPRISING THEREOF AND THEIR USES” (UNIVERSIDADE DO PORTO, priority 2021, published 2025)
Converted amounts (≈) assume the structure as drawn. Like-named read-outs stand apart in the source and are kept apart here.

Assays:
Test in all cases: Antifungal MIC/MLC (broth microdilution)
Format in all cases: cell-based
Lichtheimia spp. = test system: Lichtheimia spp.
Description: (§1) The antifungal activity of compound 1 was evaluated for a wide range of fungal species, covering yeasts and filamentous fungi, including dermatophytes. […] This antimicrobial effect was fungicidal, with minimal lethal concentrations (MLC) being equal to, or one or two-fold higher than the respective MIC. Twenty-three fungal strains were used in this study, including reference strains and clinical isolates of yeasts and filamentous fungi. Yeast strains included reference strains (ATCC—American Type Culture Collection and CECT—Colección Española de Cultivos Tipo) and clinical isolates: C. albicans ATCC 10231, Candida krusei ATCC 6258, C. albicans H37, C. albicans FF172, C. albicans FF176, C. albicans DSY294, C. albicans DSY296, C. glabrata DSY562, C. glabrata DSY565 and Cryptococcus neoformans CECT 1078. Filamentous fungi included Aspergillus fumigatus ATCC 240305, A. fumigatus C111, A. niger ATCC 16404, A. flavus F44, Fusarium solani FF125, F. oxysporum FF115, and dermatophytes Trichophyton rubrum FF5, T. mentagrophytes FF7, Microscoporum canis FF1 and Nannizzia gypsea FF3 (formerly Microsporum gypseum) and a species of genera Mucor, Lichetheimia and Scedosporium. Saprolegnia parasitica CBS 223.65, a reference strain of an oomycete fish pathogen, was also included. All microorganisms were kept in Sabouraud Dextrose Broth (SDB: BioMérieux, Marcy L'Etoile, France) plus glycerol (20%) at −80° C. The strains were kept in Sabouraud Dextrose Agar (SDA: BioMérieux, Marcy L'Etoile, France) slants and were sub-cultured in SDA before each test. S. parasitica was kept in Corn Meal Agar plates (CMA: BBL™ Corn Meal Agar, BD, Le Pont-de-Claix, France) and was sub-cultured in CMA before each experiment. C. albicans H37, was kindly provided by Cidilia Pina Vaz (CHSJ, Porto, Portugal) and C. albicans DSY294, C. albicans DSY296, C. glabrata DSY562, C. glabrata DSY565 were kindly provided by D. Sanglard (University of Lausanne, Switzerland). A stock solution of compound 1 (10 mg/mL), was prepared in dimethyl sulfoxide (DMSO 99%: Alfa Aesar, Kandel, Germany), kept at −20 degrees C., and freshly diluted in the appropriate culture media before each assay. In all experiments, in-test concentrations of DMSO were kept below 2%. Fluconazole (Alfa Aesar, Ward Hill, MA, USA) was tested as commercial antifungal.
(§2) Antifungal activity was evaluated by determining the MIC of compound 1 by the broth microdilution method, according to CLSI guidelines (reference documents M27-A3 for yeasts and M38-A2 for filamentous fungi). Briefly, cell or spore suspensions were prepared in RPMI-1640 broth medium (Biochrom, Berlin, Germany) buffered with 3-(N-morpholino)propane sulfonic acid (MOPS) (Sigma-Aldrich, St. Louis, MO, USA) (henceforth referred to as RPMI) from fresh cultures of the different strains of fungi. For yeasts, the inoculum was adjusted to 0.5-2.5×10^3 CFU/mL. For filamentous fungi, the inoculum was adjusted to 1-3×10^3 CFU/mL for dermatophytes, and 0.4-5×10^4 CFU/mL for all other strains. […] Sterility and growth controls were included in each assay. The 96-well flat-bottomed untreated polystyrene microtiter plates which were incubated for 48 h at 35° C., with the exception of Lichetheimia spp. which was incubated at 25° C. for 48 h, and the dermatophyte strains, which incubated for 5-7 days at 25° C. […] Voriconazole (kindly provided by Pfizer Ldt., UK) MIC for C. krusei ATCC 6258 was used as quality control and the assays were validated when the results obtained were within the recommended limits. The minimal lethal concentration (MLC) was determined by spreading 20 μL of culture collected from wells showing no visible growth on SDA plates. The MLC was determined as the lowest concentration showing complete growth inhibition after 48 h at 35 degrees C., 48 h at 25 degrees C. (Lichetheimia spp.) or 5-7 days at 25 degrees C. (dermatophytes). At least two independent assays were performed for all tested strains.

Mucor spp. = test system: Mucor spp.
Description: as §1, §2

C. glabrata DSY565 = test system: C. glabrata DSY565
Description: as §1, §2

C. glabrata DSY562 = test system: C. glabrata DSY562
Description: as §1, §2

[1] = test system: Cryptococcus neoformans CECT 1078
Description: as §1, §2

T. mentagrophytes FF7 = test system: T. mentagrophytes FF7
Description: as §1, §2

Fusarium oxysporum FF115 = test system: Fusarium oxysporum FF115
Description: as §1, §2

A. niger ATCC 16404 = test system: A. niger ATCC 16404
Description: as §1, §2

Scedosporium spp. = test system: Scedosporium spp.
Description: as §1, §2

A. flavus F44 = test system: A. flavus F44
Description: as §1, §2

Fusarium solani FF125 = test system: Fusarium solani FF125
Description: as §1, §2

[2] = test system: Aspergillus fumigatus ATCC 204305
Description: as §1, §2

[3] = Lichtheimia spp., intrinsically resistant to fluconazole
[4] = Mucor spp., intrinsically resistant to fluconazole
[5] = C. glabrata DSY565, resistant to fluconazole or azoles
[6] = Fusarium oxysporum FF115, intrinsically resistant to fluconazole
[7] = A. niger ATCC 16404, intrinsically resistant to fluconazole
[8] = A. flavus F44, intrinsically resistant to fluconazole
[9] = Fusarium solani FF125, intrinsically resistant to fluconazole
[10] = Aspergillus fumigatus ATCC 204305, intrinsically resistant to fluconazole

Row | SMILES | MLC (Lichtheimia spp.; [3]) [µg/mL] | MLC (Mucor spp.; [4]) [µg/mL] | MLC (C. glabrata DSY565; [5]) [µg/mL] | MLC (C. glabrata DSY562) [µg/mL] | MLC [1] [µg/mL] | MLC (T. mentagrophytes FF7) [µg/mL] | MLC (Fusarium oxysporum FF115; [6]) [µg/mL] | MLC (A. niger ATCC 16404; [7]) [µg/mL] | MLC (Scedosporium spp.) [µg/mL] | MLC (A. flavus F44; [8]) [µg/mL] | MLC (Fusarium solani FF125; [9]) [µg/mL] | MLC [2, 10] [µg/mL] | further results
1 | OC(Cn1cncn1)(Cn1cncn1)c1ccc(F)cc1F [Fluconazole, reference compound] | >128 | >128 | >128 | >128 | >32 | 32 (≈ 104 µM) | >128 | >128 | 16 (≈ 52.2 µM) | >128 | >128 | >128 | MIC (Lichtheimia spp.; Lichtheimia, read-out: MIC): 64 µg/mL (≈ 209 µM); MIC (Mucor spp.; Mucor, read-out: MIC): > 128 µg/mL; MIC (C. glabrata DSY565; Nakaseomyces glabratus, DSY565): 128 µg/mL (≈ 418 µM); MIC (C. glabrata DSY562; Nakaseomyces glabratus, read-out: MIC): 4 µg/mL (≈ 13.1 µM); MIC ([1]; CECT1078, read-out: MIC): 8 µg/mL (≈ 26.1 µM); MIC (T. mentagrophytes FF7; Trichophyton mentagrophytes, read-out: MIC): 8 µg/mL (≈ 26.1 µM); MIC (Fusarium oxysporum FF115; Fusarium oxysporum, FF115, read-out: MIC): 64 µg/mL (≈ 209 µM); MIC (A. niger ATCC 16404; Aspergillus niger, ATCC16404, read-out: MIC): ≥ 128 µg/mL; MIC (Scedosporium spp.; read-out: MIC): 4 µg/mL (≈ 13.1 µM); MIC (A. flavus F44; Aspergillus flavus, F44, read-out: MIC): 128 µg/mL (≈ 418 µM); MIC (Fusarium solani FF125; Fusarium solani, FF125, read-out: MIC): ≥ 128 µg/mL; MIC ([2]; Aspergillus fumigatus, ATCC204305, read-out: MIC): ≥ 128 µg/mL
2 | C[C@H](CCC(=O)NCCN)[C@H]1CC[C@H]2[C@@H]3CC[C@@H]4C[C@H](O)CC[C@]4(C)[C@H]3C[C@H](O)[C@]12C [Compound 1, (R)—N-(2-aminoethyl)-4-((3R,5R,8R,9S,10S,12S,13R,14S,17R)-3,12-dihydroxy-10,13-dimethylhexadecahydro-1H-cyclopenta[a]phenanthren-17-yl) pentanamida] | >128 | 64 (≈ 147 µM) | 64 (≈ 147 µM) | 64 (≈ 147 µM) | 64 (≈ 147 µM) | 64 (≈ 147 µM) | ≥128 | 128 (≈ 294 µM) | 128 (≈ 294 µM) | >128 | >128 | ≥128 | MIC (Lichtheimia spp.; [3]): 64 µg/mL (≈ 147 µM); MIC (Mucor spp.; [4]): 64 µg/mL (≈ 147 µM); MIC (C. glabrata DSY565; [5]): 64 µg/mL (≈ 147 µM); MIC (C. glabrata DSY562): 64 µg/mL (≈ 147 µM); MIC [1]: 32 µg/mL (≈ 73.6 µM); MIC (T. mentagrophytes FF7): 32 µg/mL (≈ 73.6 µM); MIC (Fusarium oxysporum FF115; [6]): 128 µg/mL (≈ 294 µM); MIC (A. niger ATCC 16404; [7]): 64 µg/mL (≈ 147 µM); MIC (Scedosporium spp.): 64 µg/mL (≈ 147 µM); MIC (A. flavus F44; [8]): ≥128 µg/mL; MIC (Fusarium solani FF125; [9]): 64 µg/mL (≈ 147 µM); MIC [2, 10]: 128 µg/mL (≈ 294 µM)
